In article PMC7075649 (Journal of Medicinal Chemistry, 2019):
Entries after “also recorded” stand apart in the source; their conditions may differ.

How the values were obtained:
+RNA viruses = type: cell-based
ZIKV = experiment: microbe, parasite or virus in culture; type: cell-based; details: Zika virus, read-out: ZIKV EC50
AK^+ and AK^– cells = details: cited from earlier work
[1] = target: recombinant human SAH hydrolase (Homo sapiens, UniProt P23526); type: biochemical
Vero cells = details: African green monkey
CHIKV = type: cell-based, chikungunya virus

Chain of recombinant human SAH hydrolase (P23526 whole entry): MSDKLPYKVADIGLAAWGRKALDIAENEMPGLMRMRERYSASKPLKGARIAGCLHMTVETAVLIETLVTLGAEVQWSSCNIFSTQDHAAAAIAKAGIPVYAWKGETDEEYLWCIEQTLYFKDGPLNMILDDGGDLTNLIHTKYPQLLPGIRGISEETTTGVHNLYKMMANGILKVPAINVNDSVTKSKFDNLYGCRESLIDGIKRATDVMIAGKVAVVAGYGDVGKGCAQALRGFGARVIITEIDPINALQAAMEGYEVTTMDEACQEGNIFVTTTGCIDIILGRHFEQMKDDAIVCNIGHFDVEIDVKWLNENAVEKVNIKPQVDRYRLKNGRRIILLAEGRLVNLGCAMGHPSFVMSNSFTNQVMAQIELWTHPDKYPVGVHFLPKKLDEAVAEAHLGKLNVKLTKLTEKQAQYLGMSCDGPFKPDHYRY

## CNc1ncnc2c1ncn2[C@H]1[C@H](O)[C@H](O)[C@@H](CO)C1(F)F [Compound 2e, (1S,2R,3R,5S)-4,4-Difluoro-3-(hydroxymethyl)-5-(6-(methylamino)-9H-purin-9-yl)cyclopentane-1,2-diol]
+RNA viruses
  antiviral activity against +RNA viruses (in words): did not show significant antiviral activities

## O=c1ccn([C@H]2[C@H](O)[C@H](O)[C@@H](CO)[C@H]2F)c(=O)[nH]1 [Compound 2f, 1-((1S,2R,3R,4R,5S)-2-Fluoro-4,5-dihydroxy-3-(hydroxymethyl)cyclopentyl)pyrimidine-2,4(1H,3H)-dione]
ZIKV
  EC50: > 100 µM

## O=c1ccn([C@H]2[C@H](O)[C@H](O)[C@@H](CO)[C@@H]2F)c(=O)[nH]1 [Compound 2g, 1-((1S,2S,3R,4R,5S)-2-Fluoro-4,5-dihydroxy-3-(hydroxymethyl)cyclopentyl)pyrimidine-2,4(1H,3H)-dione]
ZIKV
  EC50: > 100 µM

## CC(C)OC(=O)[C@H](C)N[P@](=O)(OC[C@@H]1[C@@H](O)[C@@H](O)[C@H](n2cnc3c(N)ncnc32)C1(F)F)Oc1ccccc1 [Compound 3a, Iso-propyl ((S)-(((1R,3S,4S,5R)-3-(6-Amino-9H-purin-9-yl)-2,2-difluoro-4,5-dihydroxycyclopentyl)methoxy)(phenoxy)phosphoryl)-L-alaninate]
+RNA viruses
  antiviral activity against +RNA viruses (in words): potent broad-spectrum antiviral activity; also recorded: exhibited significant broad-spectrum antiviral activities

## Nc1ncnc2c1ncn2[C@@H]1C[C@H](CO)[C@@H](O)[C@H]1O [Compound 1, (−)-Aristeromycin]
AK^+ and AK^– cells
  toxicity in AK^+ and AK^– cells: toxic at low concentrations

## CNc1ncnc2c1ncn2[C@H]1[C@H](O)[C@H](O)[C@@H](CO)[C@H]1F [Compound 2d, (1S,2R,3R,4R,5S)-4-Fluoro-3-(hydroxymethyl)-5-(6-(methylamino)-9H-purin-9-yl)cyclopentane-1,2-diol]
+RNA viruses
  antiviral activity against +RNA viruses (in words): did not show significant antiviral activities
[1]
  SAH hydrolase inhibitory activity, fold decrease versus 2a: 11.9 fold

## Nc1ncnc2c1ncn2[C@H]1[C@H](O)[C@H](O)[C@@H](CO)C1(F)F [Compound 2c, (1R,2S,3S,5R)-3-(6-Amino-9H-purin-9-yl)-4,4-difluoro-5-(hydroxymethyl)cyclopentane-1,2-diol]
Vero cells
  reduction in cytotoxicity versus 2a: > 5 fold
CHIKV
  reduction of infectious CHIKV titers: more than 2 log
